# Test results from the supplement of paper PMC13380429.
# Experiments:
# Vero E6 [1] = assay: drug sensitivity score (DSS) for viability; higher = more toxic; extreme values may be limits of the assay; conditions: 72 h
# Caco-2 [2] = assay: as above; conditions: 72 h
# U2OS [3] = assay: as above; conditions: 72 h
# HepG2 [4] = assay: as above; conditions: 72 h
# Calu-3 [5] = assay: as above; conditions: 72 h
# Vero E6 [6] = assay: cell viability relative to DMSO; higher = less toxic; conditions: 72 h
# Caco-2 [7] = assay: as above; conditions: 72 h
# U2OS [8] = assay: as above; conditions: 72 h
# HepG2 [9] = assay: as above; conditions: 72 h
# Calu-3 [10] = assay: as above; conditions: 72 h
# [11] = test system: A549-ACE2 infected with SARS-CoV-2; assay: morphology score (similarity to uninfected cells); higher = more like uninfected cells; conditions: 24 h
# A549-ACE2 [12] = assay: drug-induced phospholipidosis relative to tamoxifen; higher = more phospholipidosis
# Vero E6 [13] = assay: relative viability EC50 (midpoint between 100% and the lowest measured viability); higher = less toxic; conditions: 72 h
# Caco-2 [14] = assay: as above; conditions: 72 h
# HepG2 [15] = assay: as above; conditions: 72 h
# A549-ACE2 [16] = assay: phospholipidosis EC50; higher = less potent phospholipidosis inducer
# [17] = test system: A549-ACE2 infected with SARS-CoV-2; assay: cell count relative to DMSO; higher = less toxic; conditions: 24 h
# [18] = test system: A549-ACE2 infected with SARS-CoV-2; assay: SARS-CoV-2 infection rate relative to DMSO; higher = more infection; conditions: 24 h
# U2OS [19] = assay: relative viability EC50 (midpoint between 100% and the lowest measured viability); higher = less toxic; conditions: 72 h
# Calu-3 [20] = assay: as above; conditions: 72 h
smiles,measurement,setting,value
c1ccc2c(CCNc3ccc(Nc4ccncc4)cc3)c[nH]c2c1 [serdemetan],drug sensitivity score,Vero E6 [1],0.1
same,drug sensitivity score,Caco-2 [2],0.8
same,drug sensitivity score,U2OS [3],2.5
same,drug sensitivity score,HepG2 [4],5.1
same,drug sensitivity score,Calu-3 [5],3.7
same,cell viability,Vero E6 [6]; 1 nM,93.1%
same,cell viability,Vero E6 [6]; 10 nM,101%
same,cell viability,Vero E6 [6]; 100 nM,97.4%
same,cell viability,Vero E6 [6]; 1000 nM,93.5%
same,cell viability,Vero E6 [6]; 10000 nM,87.9%
same,cell viability,Caco-2 [7]; 1 nM,94.1%
same,cell viability,Caco-2 [7]; 10 nM,94.2%
same,cell viability,Caco-2 [7]; 100 nM,99%
same,cell viability,Caco-2 [7]; 1000 nM,92.1%
same,cell viability,Caco-2 [7]; 10000 nM,82.8%
same,cell viability,U2OS [8]; 1 nM,98.7%
same,cell viability,U2OS [8]; 10 nM,97.5%
same,cell viability,U2OS [8]; 100 nM,100%
same,cell viability,U2OS [8]; 1000 nM,100%
same,cell viability,U2OS [8]; 10000 nM,52.1%
same,cell viability,HepG2 [9]; 1 nM,94.8%
same,cell viability,HepG2 [9]; 10 nM,99.5%
same,cell viability,HepG2 [9]; 100 nM,98.6%
same,cell viability,HepG2 [9]; 1000 nM,85.7%
same,cell viability,HepG2 [9]; 10000 nM,45.6%
same,cell viability,Calu-3 [10]; 1 nM,98.5%
same,cell viability,Calu-3 [10]; 10 nM,92.3%
same,cell viability,Calu-3 [10]; 100 nM,105%
same,cell viability,Calu-3 [10]; 1000 nM,92.8%
same,cell viability,Calu-3 [10]; 10000 nM,51.7%
same,morphology score,[11]; 0.3 µM,-0.18
same,morphology score,[11]; 3 µM,0.58
same,morphology score,[11]; 10 µM,0.82
same,morphology score,[11]; 30 µM,0.17
same,drug-induced phospholipidosis,"A549-ACE2 [12]; 0.3 µM, 24 h",0.45%
same,drug-induced phospholipidosis,"A549-ACE2 [12]; 0.3 µM, 48 h",-0.34%
same,drug-induced phospholipidosis,"A549-ACE2 [12]; 0.3 µM, 72 h",-1.75%
same,drug-induced phospholipidosis,"A549-ACE2 [12]; 0.833333 µM, 24 h",0.3%
same,drug-induced phospholipidosis,"A549-ACE2 [12]; 0.833333 µM, 48 h",-2.16%
same,drug-induced phospholipidosis,"A549-ACE2 [12]; 0.833333 µM, 72 h",-1.63%
same,drug-induced phospholipidosis,"A549-ACE2 [12]; 3.33333 µM, 24 h",12.7%
same,drug-induced phospholipidosis,"A549-ACE2 [12]; 3.33333 µM, 48 h",8.14%
same,drug-induced phospholipidosis,"A549-ACE2 [12]; 3.33333 µM, 72 h",6.6%
same,drug-induced phospholipidosis,"A549-ACE2 [12]; 6.66667 µM, 24 h",59.1%
same,drug-induced phospholipidosis,"A549-ACE2 [12]; 6.66667 µM, 48 h",56.1%
same,drug-induced phospholipidosis,"A549-ACE2 [12]; 10 µM, 24 h",43.6%
same,drug-induced phospholipidosis,"A549-ACE2 [12]; 10 µM, 48 h",35.4%
same,drug-induced phospholipidosis,"A549-ACE2 [12]; 30 µM, 24 h",17.2%
same,relative viability EC50,Vero E6 [13],> 10 µM
same,relative viability EC50,Caco-2 [14],> 10 µM
same,relative viability EC50,HepG2 [15],1.51 µM
same,phospholipidosis EC50,A549-ACE2 [16]; 24 h,3.5 µM
same,phospholipidosis EC50,A549-ACE2 [16]; 48 h,3.63 µM
same,cell count,[17]; 0.3 µM,102%
same,cell count,[17]; 3 µM,106%
same,cell count,[17]; 10 µM,115%
same,cell count,[17]; 30 µM,82%
same,SARS-CoV-2 infection rate,[18]; 0.3 µM,106%
same,SARS-CoV-2 infection rate,[18]; 3 µM,72%
same,SARS-CoV-2 infection rate,[18]; 10 µM,22%
same,SARS-CoV-2 infection rate,[18]; 30 µM,43%
COc1cc2c(NC3CCN(C4CCCCC4)CC3)nc(N3CCCN(C(C)C)CC3)nc2cc1OCCCN1CCCCC1 [UNC0646],drug sensitivity score,Vero E6 [1],0
same,drug sensitivity score,Caco-2 [2],0
same,drug sensitivity score,U2OS [3],0
same,drug sensitivity score,HepG2 [4],1.5
same,drug sensitivity score,Calu-3 [5],0.6
same,cell viability,Vero E6 [6]; 1 nM,92.2%
same,cell viability,Vero E6 [6]; 10 nM,97.6%
same,cell viability,Vero E6 [6]; 100 nM,94.3%
same,cell viability,Vero E6 [6]; 1000 nM,92%
same,cell viability,Vero E6 [6]; 10000 nM,100%
same,cell viability,Caco-2 [7]; 1 nM,96%
same,cell viability,Caco-2 [7]; 10 nM,97.6%
same,cell viability,Caco-2 [7]; 100 nM,100%
same,cell viability,Caco-2 [7]; 1000 nM,97.6%
same,cell viability,Caco-2 [7]; 10000 nM,93.9%
same,cell viability,U2OS [8]; 1 nM,103%
same,cell viability,U2OS [8]; 10 nM,102%
same,cell viability,U2OS [8]; 100 nM,107%
same,cell viability,U2OS [8]; 1000 nM,97%
same,cell viability,U2OS [8]; 10000 nM,94.7%
same,cell viability,HepG2 [9]; 1 nM,88.2%
same,cell viability,HepG2 [9]; 10 nM,96.7%
same,cell viability,HepG2 [9]; 100 nM,90.9%
same,cell viability,HepG2 [9]; 1000 nM,102%
same,cell viability,HepG2 [9]; 10000 nM,65.3%
same,cell viability,Calu-3 [10]; 1 nM,96.5%
same,cell viability,Calu-3 [10]; 10 nM,92.3%
same,cell viability,Calu-3 [10]; 100 nM,93.6%
same,cell viability,Calu-3 [10]; 1000 nM,90.4%
same,cell viability,Calu-3 [10]; 10000 nM,83.9%
same,morphology score,[11]; 0.3 µM,0.28
same,morphology score,[11]; 3 µM,0.67
same,morphology score,[11]; 10 µM,0.92
same,morphology score,[11]; 30 µM,-0.11
same,drug-induced phospholipidosis,"A549-ACE2 [12]; 0.3 µM, 24 h",-0.25%
same,drug-induced phospholipidosis,"A549-ACE2 [12]; 0.3 µM, 48 h",1.05%
same,drug-induced phospholipidosis,"A549-ACE2 [12]; 0.3 µM, 72 h",0.206%
same,drug-induced phospholipidosis,"A549-ACE2 [12]; 0.833333 µM, 24 h",5.64%
same,drug-induced phospholipidosis,"A549-ACE2 [12]; 0.833333 µM, 48 h",5.57%
same,drug-induced phospholipidosis,"A549-ACE2 [12]; 0.833333 µM, 72 h",4.62%
same,drug-induced phospholipidosis,"A549-ACE2 [12]; 3.33333 µM, 24 h",3.14%
same,drug-induced phospholipidosis,"A549-ACE2 [12]; 3.33333 µM, 48 h",5.07%
same,drug-induced phospholipidosis,"A549-ACE2 [12]; 3.33333 µM, 72 h",7.33%
same,drug-induced phospholipidosis,"A549-ACE2 [12]; 6.66667 µM, 24 h",8.62%
same,drug-induced phospholipidosis,"A549-ACE2 [12]; 6.66667 µM, 48 h",9.69%
same,drug-induced phospholipidosis,"A549-ACE2 [12]; 6.66667 µM, 72 h",11.5%
same,drug-induced phospholipidosis,"A549-ACE2 [12]; 10 µM, 24 h",22%
same,drug-induced phospholipidosis,"A549-ACE2 [12]; 10 µM, 48 h",24.5%
same,drug-induced phospholipidosis,"A549-ACE2 [12]; 10 µM, 72 h",28%
same,drug-induced phospholipidosis,"A549-ACE2 [12]; 30 µM, 24 h",44.4%
same,drug-induced phospholipidosis,"A549-ACE2 [12]; 30 µM, 48 h",45.2%
same,relative viability EC50,Vero E6 [13],> 10 µM
same,relative viability EC50,Caco-2 [14],> 10 µM
same,relative viability EC50,U2OS [19],> 10 µM
same,relative viability EC50,Calu-3 [20],> 10 µM
same,cell count,[17]; 0.3 µM,106%
same,cell count,[17]; 3 µM,110%
same,cell count,[17]; 10 µM,112%
same,cell count,[17]; 30 µM,25%
same,SARS-CoV-2 infection rate,[18]; 0.3 µM,92%
same,SARS-CoV-2 infection rate,[18]; 3 µM,68%
same,SARS-CoV-2 infection rate,[18]; 10 µM,26%
same,SARS-CoV-2 infection rate,[18]; 30 µM,47%
